Data published in patent publication US12194033B2, “Glycine receptor modulators and methods of use” (University of Pittsburgh—Of the Commonwealth System of …, priority 2017, dated 2025).

Assays:
[1] = system: CD1 mice; assay: Hargreaves test under CFA-induced hyperalgesic conditions in CD1 mice; type: in vivo; conditions: for response time for paw withdrawal compared to vehicle: 0.1 mg/kg, CD1 mice, CFA-induced hyperalgesic conditions
Procedure: Under CFA-induced hyperalgesic conditions, the maximum possible effect, % MPE=(response−baseline)/(cut-off time−baseline), was measured for the application of compound 1 alone (0.05 mg/kg, blue, n=12; 0.01 mg/kg, orange, n=4), morphine alone (0.1 mg/kg, green, n=8), and compound 1 with morphine at three different dosage combinations: 0.05 mg/kg compound 1 with 0.1 mg/kg morphine (light blue, n=6), 0.01 mg/kg compound 1 with 0.1 mg/kg morphine (pink, n=10), and 0.01 mg/kg compound 1 with 0.01 mg/kg morphine (red, n=4). […] Error bars designate the standard error of the mean.
0.05 mg/kg compound 1 was tested for tolerance in CFA-treated mice (red). Under CFA-induced hyperalgesic conditions (24 hours post-application of CFA), 0.05 mg/kg compound 1 was administered to CD1 mice and responses to the Hargreaves test were measured immediately after the initial injection (application time=0) and again after a repeated dose given 1.5 hours (FIG. 7A) or 24 hours (FIG. 7B) after the effects of the first dose wore off. The black circles represent the responses of naïve mice (i.e., no administration of compound 1 or CFA), and the red circles represent the responses of mice receiving compound 1 under CFA-induced hyperalgesic conditions. […] Error bars designate the standard error of the mean (n=4).
Responses of CD1 mice to the Hargreaves test were assessed after application of 0.1 mg/kg of the indicated compounds (black) or vehicle (white) under CFA-induced hyperalgesic conditions as shown in FIGS. 8A-8H. The assessed compounds were compounds 1 (8A), 2 (8B), 3 (8C), 4 (8D), 5 (8E), 6 (8F), 7 (8G), and 8 (8H). […] Error bars designate the standard error of the mean (n≥4).
Dose response curves from the Hargreaves test in mice with a CFA-inflamed left hind paw at 1.5 and 2 hr after intraperitoneal injection of compound 1. Percent Maximum Possible Effect (% MPE) was calculated from paw withdrawal latencies.
Tolerance to compound 1 (MJPY1) and compound 3 (MJPY2) was measured by repeated dosing in the Hargreaves Test. […] Mice (n=6/group) received repeated i.p. injections of vehicle or 0.1 mg/kg compound 1 (MJPY1) or compound 3 (MJPY2) once a day for 5 days. CFA inflammation was induced on day 4, and PWL was measured 0.5 hr before and every 10 min after treatment on day 5. Data were binned to 30-min blocks (mean±SEM).

[2] = system: mice; assay: Two-plate thermal preference test (30° C. vs 55° C.); type: in vivo; conditions: for percentage of inactive time on the hot plate (55° C.): CD1 mice, CFA, vs naïve
Procedure: Responses to the two-plate thermal preference test were assessed under naïve conditions and 1 hour after administration of 0.2 mg/kg compound 1, 0.1 mg/kg morphine, or 0.2 mg/kg compound 1+0.1 mg/kg morphine. Unrestrained mice were exposed to plates set to normal and hot temperatures (30° C. and 55° C., respectively). Temperature preference was measured by percentage time spent on the hot plate (55° C.) over the course of 4 minutes, where 50% indicates no preference between the two temperatures. […] Error bars designate the standard error of the mean (n≥5).
Unrestrained mice were exposed to plates set to normal and hot temperatures (30° C. and 55° C., respectively) for 10 minutes. […] Error bars designate the standard error of the mean (n=4).
The percent inactivity on the 55° C. plate (mean±SEM) is a measure of heat tolerance. Significance was assessed by one-way ANOVA with LSD post-hoc test.

[3] = 0.1 mg/kg i.p., 1 hour after injection
[4] = 0.1 mg/kg i.p., 48 hours after injection

SMILES	response time for paw withdrawal compared to vehicle [1]	further results
O=C(NCc1ccc(C(=O)N2CCCCC2)cc1)c1ccc2c3c(cccc13)CC2 [compound 2, N-{[4-(piperidine-1-carbonyl)phenyl]methyl}-1,2-dihydroacenaphthylene-5-carboxamide]	increase in the response time	–
NC(=O)CNC(=O)c1ccc(CNC(=O)c2ccc3c4c(cccc24)CC3)cc1 [compound 3, N-({4-[(carbamoylmethyl)-carbamoyl]phenyl}methyl)-1,2-dihydroacenaphthylene-5-carboxamide]	increase in the response time	percentage of inactive time on the hot plate (55° C.) [2, 3]: significantly increased; percentage of inactive time on the hot plate (55° C.) [2, 4]: significantly increased; analgesic action compared with morphine (percent inactivity on the 55° C. plate) ([2]; 0.1 mg/kg i.p., male CD1 mice, 24 hr after CFA, 1 hr after treatment, same dose): better than morphine; tolerance after repeated dosing (PWL) ([1]; 0.1 mg/kg i.p. once a day for 5 days, CFA on day 4): negligible tolerance
CN(C)C(=O)c1cccc(CNC(=O)c2ccc3c4c(cccc24)CC3)c1 [compound 4, N-[[3-(dimethylcarbamoyl)-phenyl]methyl]-1,2-dihydroacenaphthylene-5-carboxamide]	increase in the response time	percentage of inactive time on the hot plate (55° C.) [2, 3]: increase in the inactive time; percentage of inactive time on the hot plate (55° C.) [2, 4]: no effect
NC(=O)c1ccc(CNC(=O)c2ccc3c4c(cccc24)CC3)cc1 [compound 5, N-[(4-carbamoylphenyl)-methyl]-1,2-dihydroacenaphthylene-5-carboxamide]	increase in the response time	–
O=C1CN(C(=O)c2ccc(CNC(=O)c3ccc4c5c(cccc35)CC4)cc2)CCN1 [compound 6, N-{[4-(3-oxopiperazine-1-carbonyl)phenyl]methyl}-1,2-dihydroacenaphthylene-5-carboxamide]	increase in the response time	–
CCN(Cc1ccc(C(=O)N(C)C)cc1)C(=O)c1ccc2c3c(cccc13)CC2 [compound 7, N-{[4-(dimethylcarbamoyl)-phenyl]methyl}-N-ethyl-1,2-dihydroacenaphthylene-5-carboxamide]	increase in the response time	–
CCNC(=O)c1ccc(CNC(=O)c2ccc3c4c(cccc24)CC3)cc1 [compound 8, N-{[4-(ethylcarbamoyl)-phenyl]methyl}-1,2-dihydroacenaphthylene-5-carboxamide]	increase in the response time	–
CN1CC[C@]23c4c5ccc(O)c4O[C@H]2[C@@H](O)C=C[C@H]3[C@H]1C5 [morphine, reference compound]	–	percentage time spent on the hot plate (55° C.) compared to naïve mice ([2]; normal nociception, 1 hour after 0.2 mg/kg compound 1, 0.1 mg/kg morphine, or both, 4 minutes): no significant analgesic response
